Measurements reported in patent publication US8084431B2, “Method for inhibiting activation of macrophages, inhibiting formation of osteoclasts, inhibiting function of osteoclasts, and/or activating osteoblasts” (China Medical University, priority 2008, dated 2011).
Where two headings read alike, the source gives them in different places.

How the values were obtained:
[1] = system: nitric oxide synthase (iNOs), p65, and p50 (NF-κB); assay: Western blot of iNOs, p65 and p50 in LPS-induced macrophages RAW 264.7; format: cell-based; conditions: kinsenoside 10, 50, 100 μM
Protocol: 24 hours later, the supernatant was collected, and the content of nitric oxide was determined with a Griess reagent (Sigma). After macrophages RAW 264.7 were scratched off the culture plates, proteins were extracted, and then the expression of nitric oxide synthase (iNOs), p65, and p50 (nuclear factor kappa B or NF-κB, transcription factor) was analyzed with the western blot method.

[2] = system: ICR mice administrated with lipopolysaccharides; assay: Septic shock death of ICR mice induced by high dosage of lipopolysaccharides; format: in vivo; conditions: kinsenoside 100 or 300 mg/kg intraperitoneal, LPS 80 mg/kg, FIG. 4
Protocol: ICR mice were intraperitoneally administrated with various dosages (100 mg/kg or 300 mg/kg) of kinsenoside. 30 minutes later, the ICR mice were intraperitoneally administrated with 80 mg/kg of lipopolysaccharides, and the death rate of the ICR mice within 72 hours was observed.

myelocytes of rats = assay: Formation of osteoclasts from rat myelocytes (RANKL + M-CSF, TRAP stain); format: cell-based, Wistar rats; conditions: for inhibition at 5 µM / inhibition at 25 µM / inhibition at 50 µM / inhibition at 100 µM: Rattus norvegicus, Osteoclast, 216 h, 9 days
Protocol: Myelocytes were first prepared. Male Wistar rats with the body weight of 250 g to 300 g were used to prepare myelocytes. Under the condition of anaesthesia, the femurs of the rats were taken, and myelocytes were washed out with a phosphate buffer solution. […] After incubation for 9 days, monocytes in the marrow differentiated into osteoclasts. The osteoclasts were stained with a TRAP (tartrate-resistant acid phosphatase) stain reagent (Sigma, Louis, Mo., USA), and the number of the osteoclasts was calculated. Besides the same RANKL and M-CSF as the control group, various concentrations (0, 5, 25, 50, and 100 μM) of kinsenoside or 10 nM of estradiol (Wako, Japan) were added into culture plates, respectively. Then, rat myelocytes were incubated for 9 days, and the situation that the myelocytes differentiated into osteoclasts was observed. The percentage of the inhibition effect of kinsenoside and estradiol on the formation of osteoclasts was calculated with the following formula, and the result is shown in Table 9. Inhibition percentage (%)=(the number of osteoclasts of the control group−the number of osteoclasts of the experimental group)/the number of osteoclasts of the control group×100% In addition to the aforesaid RANKL, kinsenoside, and/or estradiol, the inhibitor of estradiol, Fulvestrant (Sigma, Louis, Mo., USA) (1 nM), was also added into culture plates. Then, rat myelocytes were incubated for 9 days, and the situation that the myelocytes differentiated into osteoclasts was observed. The percentage of the inhibition effect of kinsenoside on the formation of osteoclasts was calculated, and the result is shown in Table 9.

[3] = system: MMP-9 (metalloproteinases 9); assay: RT-PCR of MMP-9 mRNA in RANKL-treated macrophages RAW 264.7; format: cell-based; conditions: kinsenoside 50 μM, RANKL 50 ng/ml, 24, 48, 72 hours, FIG. 8A and 8B
Protocol: As osteoclasts are activated, they RELEASE MMP-9 (metalloproteinases 9) to erode collagen in bones. Using RT-PCR to analyze the expression of mRNA of MMP-9, one can see if kinsenoside inhibits the bone resorption activity of osteoclasts.
As macrophages RAW 264.7 were incubated in culture plates containing 50 ng/ml of RANKL, 50 μM of kinsenoside was added thereto. After the macrophages RAW 264.7 were incubated for 24, 48, and 72 hours, mRNAs were extracted to analyze the expression of MMP-9 with RT-PCR. […] Thus, kinsenoside can inhibit the bone resorption of osteoclasts.

MC3T3-E1 cells [4] = assay: Survival rate of osteoblast precursor cells MC3T3-E1 (MTS); format: cell-based; conditions: 3 days; for survival rate Experimental Group VI: with Vitamin C and β-glycerophosphatase; for survival rate Experimental Group V: without differentiation inducers
Protocol: MC3T3-E1 cells (American Type Culture Collection, Manassas, Va., USA) are the precursor cells of osteoblasts. A suitable differentiation inducer can be added into culture plates containing MC3T3-E1 cells to observe the later stage of the differentiation process of osteoblasts.
Besides various concentrations of kinsenoside as the above experiment, […] MC3T3-E1 cells, and the MC3T3-E1 cells were incubated for 3 days.

[5] = system: ICR mice administrated with lipopolysaccharides; assay: LPS-induced inflammatory cytokines in the blood of ICR mice (ELISA); format: in vivo; conditions: LPS 40 mg/kg, 1 hour
Protocol: ICR mice were intraperitoneally administrated with various dosages (100 mg/kg or 300 mg/kg) of kinsenoside. 30 minutes later, the ICR mice were intraperitoneally administrated with 40 mg/kg of lipopolysaccharides. 1 hour later, the blood of the ICR mice was collected from the retro-orbital sinus, and the concentrations of TNF-α and IL-1β were determined with an ELISA (enzyme linked immunosorbent assay) reagent (eBioscience, Boston, Mass.).

MC3T3-E1 cells [6] = assay: Alkaline phosphatase activity of MC3T3-E1 cells; format: cell-based
Protocol: ALP (alkaline phosphatase) is a molecular indicator or molecular marker for the early stage of the activation of the precursor cells of osteoblasts, and according to the activity of ALP, the activation situation of the precursor cells of osteoblasts can observed. […] The MC3T3-E1 cells were incubated for 3, 5, and 10 days respectively, and then proteins in the cells were extracted. A p-nitrophenyl phosphate liquid substrate system reagent (Sigma) was used to determine the activity of ALP, and the result is shown in Table 13.

macrophages RAW 264.7 = conditions: mouse, 3 days
Protocol: After 3 days, the survival rate of the macrophages RAW 264.7 was measured with MTS (3-(4,5-di-methylthiazol-2-yl)-5-(3-carboxymethoxyphenyl)-2-(4-sulfophenyl)-2H-tetrazolium) (Promega, Madison, Wis., USA), and the result is shown in Table 10.
The mechanism of MTS is that a live cell has the activity of dehydrogenase, so MTS can be reduced to become a red purple soluble product, and the product has the highest absorbance at the wavelength of 490 nm. Therefore, the survival rate of cells can be determined according to the absorbance, and the survival rate of cells can be calculated with the following formula: Survival rate=the absorbance of the experimental group/the absorbance of the control group×100%

[7] = with Fulvestrant 1 nM, read-out: inhibition percentage Experimental Group II
[8] = without Fulvestrant, read-out: inhibition percentage Experimental Group I
[9] = kinsenoside 100 mg/kg intraperitoneal
[10] = kinsenoside 300 mg/kg intraperitoneal

Q: For O=C1C[C@@H](OC2OC(CO)C(O)C(O)C2O)CO1 (stereo partly drawn) [kinsenoside, 3-(R)-3-β-D-glucopyranosyloxy-butanolide], which “expression of nitric oxide synthase” value ([1]; FIG. 2A and 2B) is on record?
A: reduce the expression of nitric oxide synthase

Q: What about the “p50 and p65 entering into the nuclei” value ([1]; FIG. 3A to 3C) of the same compound?
A: this effect can be inhibited by kinsenoside

Q: And the “death rate of the ICR mice within 72 hours” value [2]?
A: inhibits the death rate

Q: And the “effect of Fulvestrant on the inhibition of osteoclast formation” value (myelocytes of rats; Fulvestrant 1 nM, summary of Table 9)?
A: no inhibition effect

Q: What about the inhibition at 5 µM (myelocytes of rats; [7]) of the same compound?
A: 12 ± 7.5%

Q: And the inhibition at 5 µM (myelocytes of rats; [8])?
A: 15.3 ± 7.2%

Q: And the inhibition at 25 µM (myelocytes of rats; [7])?
A: 16.3 ± 6.7%

Q: And the inhibition at 25 µM (myelocytes of rats; [8])?
A: 25 ± 2%

Q: What about the inhibition at 50 µM (myelocytes of rats; [7]) of the same compound?
A: 65.7 ± 3.8%

Q: And the inhibition at 50 µM (myelocytes of rats; [8])?
A: 50.3 ± 4.2%

Q: And the inhibition at 100 µM (myelocytes of rats; [7])?
A: 76 ± 3.6%

Q: And the inhibition at 100 µM (myelocytes of rats; [8])?
A: 78.1 ± 2.8%

Q: What about the “expression of mRNA of MMP-9” value [3] of the same compound?
A: inhibits the expression of mRNA of MMP-9

Q: And the “survival rate Experimental Group VI” value (MC3T3-E1 cells [4]; 10 nM)?
A: 98.7 ± 7.8%

Q: What about the “survival rate Experimental Group V” value (MC3T3-E1 cells [4]; 10 nM) of the same compound?
A: 91.5 ± 3.0 %

Q: What about the “survival rate Experimental Group VI” value (MC3T3-E1 cells [4]; 100 nM) of the same compound?
A: 95.3 ± 3.3%

Q: And the “survival rate Experimental Group V” value (MC3T3-E1 cells [4]; 100 nM)?
A: 90.8 ± 2.9 %

Q: What about the “survival rate Experimental Group VI” value (MC3T3-E1 cells [4]; 1000 nM) of the same compound?
A: 95.0 ± 4.5%

Q: And the “survival rate Experimental Group V” value (MC3T3-E1 cells [4]; 1000 nM)?
A: 89.5 ± 6.0 %

Q: What about the IL-1β [5, 9] of the same compound?
A: 371.1 ± 127.8 ng/mL

Q: What about the TNF-α [5, 9] of the same compound?
A: 680.5 ± 160.2 ng/mL

Q: What about the IL-1β [5, 10] of the same compound?
A: 272.6 ± 102.6 ng/mL

Q: What about the TNF-α [5, 10] of the same compound?
A: 513.4 ± 155.0 ng/mL

Q: What about the ALP activity (MC3T3-E1 cells [6]; 10 nM, 3 days) of the same compound?
A: 112 ± 11%

Q: And the ALP activity (MC3T3-E1 cells [6]; 10 nM, 5 days)?
A: 120 ± 18%

Q: And the ALP activity (MC3T3-E1 cells [6]; 10 nM, 10 days)?
A: 125 ± 6%

Q: And the ALP activity (MC3T3-E1 cells [6]; 100 nM, 3 days)?
A: 124 ± 17%

Q: And the ALP activity (MC3T3-E1 cells [6]; 100 nM, 5 days)?
A: 126 ± 17%

Q: What about the ALP activity (MC3T3-E1 cells [6]; 100 nM, 10 days) of the same compound?
A: 137 ± 16%

Q: What about the ALP activity (MC3T3-E1 cells [6]; 1000 nM, 3 days) of the same compound?
A: 130 ± 21%

Q: And the ALP activity (MC3T3-E1 cells [6]; 1000 nM, 5 days)?
A: 132 ± 16 %

Q: And the ALP activity (MC3T3-E1 cells [6]; 1000 nM, 10 days)?
A: 150 ± 23 %

Q: What about the “survival rate Experimental Group III” value (macrophages RAW 264.7; 10 μM) of the same compound?
A: 117.5 ± 8.0%

Q: What about the “survival rate Experimental Group IV” value (macrophages RAW 264.7; 10 μM) of the same compound?
A: 100.3 ± 4.0%

Q: What about the “survival rate Experimental Group III” value (macrophages RAW 264.7; 25 μM) of the same compound?
A: 139.9 ± 4.9%

Q: And the “survival rate Experimental Group IV” value (macrophages RAW 264.7; 25 μM)?
A: 105.0 ± 2.4%

Q: What about the “survival rate Experimental Group III” value (macrophages RAW 264.7; 50 μM) of the same compound?
A: 136.9 ± 4.8%

Q: What about the “survival rate Experimental Group IV” value (macrophages RAW 264.7; 50 μM) of the same compound?
A: 101.0 ± 0.3%
